Experiments:
S. typhimurium TA98 = test: AMES reverse mutation assay, TA98; type: cell-based
Protocol: (§1) Supplementary file 40035_2019_148_MOESM4_ESM.pdf: Additional file 4: AMES Data Summary. AMES Experimental Procedure. Approximately ten million bacteria are exposed in triplicate to VCE-003-.2 (7.8, 15.6, 31.3, 62.5, 125 and 250 μg/ml), a negative control (vehicle) and a positive control for 90 min in medium containing a low concentration of histidine (sufficient for about 2 doublings). The cultures were then diluted into indicator medium lacking histidine and dispensed into 48 wells of a 384 well plate (micro-plate format, MPF). The plate was incubated for 48 h at 37 °C, and the number of wells showing growth were counted and compared to the vehicle control. An increase in the number of colonies of at least two-fold over baseline (mean + SD of the vehicle control) and a dose response indicates a positive response. […] Where indicated, S9 fraction from the livers of Aroclor 1254-treated rats was included in the incubation at a final concentration of 4.5%. An NADPH-regenerating system is also included to ensure a steady supply of reducing equivalents. The strains used in this study were S. typhimurium TA98 (hisD3052, rfa, uvrB/pKM10 for detection of frame-shift mutations) and S. typhimurium TA100 ([…], rfa, uvrB/pKM101 for detection of base-pair substitutions). VCE-003.2 was assessed for its mutagenic potential in the AMES reverse mutation assay. This test was performed in the absence and presence of S9 metabolic activation. […] The positive controls all behaved as expected. (PDF 568 kb)

[1] = test system: mutant huntingtin-induced neurodegeneration; test: Viral model of Huntington's disease, AAV expression of mutant huntingtin (AAV-htt94Q) in mouse striatum; type: in vivo, C57BL/6 N mice; settings: 10 mg/kg/day oral
Protocol: Male C57BL/6 N mice (10 weeks old) were housed under standard conditions (12-h light/dark cycle) in groups with access to food and water ad libitum. All experiments were performed in accordance with European Union guidelines and approved by the Animal Research Ethics Committee of Complutense and Córdoba University. Procedures were designed to minimize the number of animals used and their suffering. Constructs expressing CFP-tagged human huntingtin exon 1 harboring a pathogenic polyQ tract of 94 CAG repeats or a normal, non-pathogenic polyQ tract of 16 CAG repeats (kindly provided by Dr. José J. Lucas, Severo Ochoa Molecular Biology Center, Madrid, Spain) were employed using an AAV1/AAV2 mixed serotype, generated by polyethyleneimine transfection of HEK293T cells and subsequent purification in iodixanol gradient. Vectors were injected stereotactically (in 3 μl PBS) into the dorsal striatum in a bilateral manner at coordinates (mm to bregma): antero-posterior + 0.5, lateral ±2.5, dorso-ventral − 3.5 as previously described. VCE-003.2 (10 mg/kg) or vehicle (sesame oil) were orally administered once daily (Fig. 1), and for neurogenesis experiments BrdU (100 mg/kg) was administered i.p. twice daily on the first week after viral injection. RotaRod test was conducted prior to drug injections to avoid acute effects of the compounds under investigation. RotaRod started at 4 rpm, with an acceleration rate of 6 rpm/min until either maximum speed is reached or the mouse falls from the apparatus. Maximum time assay was 10 min. Basal RotaRod performance was determined 6 days prior to striatal injury in 3 consecutive days with 3 trials/day (30 min of rest between each trial), and groups with equivalent motor function were assigned. RotaRod test was performed during 3 consecutive days prior to sacrifice and plasma was obtained for peripheral biomarker analyses. All experiments included a minimum of 6 mice per condition. The precise number of animals analyzed in each experiment is indicated in the corresponding figure legends.
Free floating coronal brain slices (30 μm) were processed as previously described. In brief, after blocking with 10% goat serum, brain sections were incubated with the indicated primary antibodies followed by secondary antibody incubation (2 h at room temperature). The appropriate mouse, rat and rabbit highly cross-adsorbed AlexaFluor 488, AlexaFluor 594 and AlexaFluor 647 secondary antibodies (1:500; Molecular Probes, Leyden, The Netherlands) were used. Samples were subsequently incubated with DAPI (1:5000, Roche) for 10 min, washed with PBS and mounted in Mowiol. All immunofluorescence data were obtained in a blinded manner by independent observers in a minimum of 6 correlative slices, from 1-in-10 series located between − 0.4 to + 1.6 mm to bregma. The lateral SVZ zone was delineated by using DAPI-counterstained cell nuclei, and analyses were performed in the upper dorsal tier, in which positively-labelled cells and immunoreactivity were quantified not beyond 100 μm of the SVZ. Confocal fluorescence images were acquired by using LAS-X software (Wetzlar, Germany) and SP8 microscope with 2 passes by Kalman filter, a 1024X1024 collection box, and pinhole AU 1. […] Cells were quantified within a 20 × 20 μm counting frame, which randomly sampled within a 122.8 × 68.9 μm counting grid. Cells that contacted the lateral or upper exclusion plane were excluded. The total number of cells counted was divided by the number of sampled counting frames and multiplied by its size to obtain the density of positive cells. Co-localization was confirmed by orthogonal projection of 18 z-stack files (1-μm each), and data were expressed as cells/mm^2. […]

S. typhimurium TA100 = test: AMES reverse mutation assay, TA100; type: cell-based
Protocol: as §1

[2] = AAV-htt16Q and AAV-htt94Q mice, 30 days
[3] = AAV-htt94Q mice, 4 weeks after lesion

For `CCCCCC1=C(NCC)C(=O)C(CC=C(C)CCC=C(C)C)=C(O)C1=O` [VCE-003.2, 2-(3,7-dimethyl-octa-2,6-dienyl)-6-ethylamino-3-hydroxy-5-pentyl-(1,4) benzoquinone], the “AMES Result” value (S. typhimurium TA98; TA98, S9 no) was “Negative”, the “AMES Result” value (S. typhimurium TA98; TA98, S9 yes) was “Negative” and the “doublecortin-positive neuroblasts in striatum” value [1, 2] was “increased doublecortin-expressing cells”. For the same molecule, the “effective neurogenesis, double-positive NeuN/BrdU neurons” value [1, 2] was “effective in promoting neurogenesis”, the “Ascl1-positive transit amplifying progenitors” value [1, 3] was “further promoted Ascl1-positive cell expansion” and the “proliferating SVZ neural stem cells, GFAP/Ki-67 double-labelled” value [1, 3] was “increased the number of proliferating GFAP-positive cells”. For the same molecule, the “motor performance, RotaRod latency to fall” value ([1]; AAV-htt94Q mice, 14 days, vs vehicle) was “performed better in the RotaRod test”, the “MSN degeneration, DARPP-32 and NeuN immunofluorescence” value ([1]; AAV-htt94Q mice, 30 days after lesion) was “prevented htt94Q-induced MSN degeneration” and the “microglial activation, Iba1 immunoreactivity” value ([1]; AAV-htt94Q mice, vs vehicle) was “reduced microglial activation”. The “AMES Result” value (S. typhimurium TA100; TA100, S9 no) was “Negative” and the “AMES Result” value (S. typhimurium TA100; TA100, S9 yes) was “Negative”.

From article PMC6407204, “Oral administration of the cannabigerol derivative VCE-003.2 promotes subventricular zone neurogenesis and protects against mutant huntingtin-induced neurodegeneration” (Translational Neurodegeneration, 2019)
